Experimental data as given in patent US10934298B2, “Substituted pyrazolo[1,5-a]pyrimidines for the treatment of medical disorders” (BIAL—BioTech Investments, Inc., priority 2016, dated 2021).

Target: T1, glucocerebrosidase (Gcase) (Homo sapiens, UniProt P04062)
T1 construct: micellar solution containing 10 nM GCase and 100 nM saposin C
T1 sequence (P04062 40-536): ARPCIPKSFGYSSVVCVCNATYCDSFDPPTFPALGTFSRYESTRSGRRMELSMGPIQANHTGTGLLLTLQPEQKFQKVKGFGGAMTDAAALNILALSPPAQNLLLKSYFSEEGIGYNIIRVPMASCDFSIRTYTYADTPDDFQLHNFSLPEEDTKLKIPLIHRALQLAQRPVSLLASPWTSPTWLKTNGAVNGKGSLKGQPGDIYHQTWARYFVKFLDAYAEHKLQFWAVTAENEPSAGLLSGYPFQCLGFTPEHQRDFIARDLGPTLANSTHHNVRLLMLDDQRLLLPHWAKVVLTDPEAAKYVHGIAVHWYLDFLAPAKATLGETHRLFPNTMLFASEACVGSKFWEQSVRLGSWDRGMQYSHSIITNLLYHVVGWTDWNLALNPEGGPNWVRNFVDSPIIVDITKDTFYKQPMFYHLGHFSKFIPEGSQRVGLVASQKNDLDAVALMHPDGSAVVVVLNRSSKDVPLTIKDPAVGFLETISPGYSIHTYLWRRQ
Experiment: Glucocerebrosidase (Gcase) activation assay with 4-methylumbelliferyl-beta-D-glucopyranoside substrate, saposin C and phosphatidylserine/triton micelles, fluorescence readout
Format: biochemical
Procedure, shortened: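 Readout is endpoint fluorescence (ex 365, em 440 nm) after glycine pH 12.5 stop of a 15-min room-temperature reaction. Enzyme mix: GCase 10 nM plus saposin C 100 nM in 0.37 mol % PS/0.32 mM triton micelles, pH 4.7, compound pre-incubated 30 min; substrate solution 2 mM before 1:1 mixing. Tested at 1.0/0.1 μM, then 3-fold, 8-point series up to 5 μM.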

| Percent Gcase Activation, 0.1 μM Test Compound (0.1 μM test compound) | Percent Gcase Activation, 1 μM Test Compound (1 μM test compound) | Percent Gcase Activation, 0.1 μM Test Compound (test compound at 0.1 μM) | Percent Gcase Activation, 1 μM Test Compound (test compound at 1.0 μM) | SMILES | also measured |
| --- | --- | --- | --- | --- | --- |
|  |  |  |  | Cc1cc(C(F)(F)F)nc2c(C(=O)NC(C)(C)C3CC3)cnn12 [III-68] | Percent Gcase Activation, 0.1 μM Test Compound (0.1 μM test compound, Table 3A): * (less than 10% Gcase activation); Percent Gcase Activation, 1 μM Test Compound (1 μM test compound, Table 3A): + (less than 30% Gcase activation) |
|  |  |  |  | Cc1cc(Cl)nc2c(C(=O)NC(C3CC3)C(F)(F)F)cnn12 (centres unmarked) [III-45] | Percent Gcase Activation, 0.1 μM Test Compound (0.1 μM test compound, Table 3A): *** (greater than 20% Gcase activation); Percent Gcase Activation, 1 μM Test Compound (1 μM test compound, Table 3A): +++ (Gcase activation greater than 60%) |
| *** (greater than 20% Gcase activation) | +++ (Gcase activation greater than 60%) |  |  | Cc1cc(-c2cc(F)ccc2C#N)nc2c(C(=O)N[C@@H](C)C3CC3)cnn12 [III-396] |  |
|  |  | *** (greater than 20% Gcase activation) | +++ (Gcase activation greater than 60%) | COc1cncc(-c2cc(C)n3ncc(C(=O)NC(C4CC4)C(F)(F)F)c3n2)c1 (centres unmarked) [III-265] |  |
| *** (greater than 20% Gcase activation) | +++ (Gcase activation greater than 60%) |  |  | Cc1cc(-c2cc(C)n3ncc(C(=O)N[C@H](C)C(F)(F)F)c3n2)co1 [III-338] |  |
| *** (greater than 20% Gcase activation) | +++ (Gcase activation greater than 60%) |  |  | Cc1cc(-c2cc(F)c3ocnc3c2)nc2c(C(=O)N[C@H](C)C(F)(F)F)cnn12 [III-296] |  |
|  |  | * (less than 10% Gcase activation) | +++ (Gcase activation greater than 60%) | Cc1cc(-c2ccns2)nc2c(C(=O)N[C@H](C)C3CC3)cnn12 [III-198] |  |
|  |  | *** (greater than 20% Gcase activation) | +++ (Gcase activation greater than 60%) | Cc1cc(-c2ccc(F)nc2)nc2c(C(=O)NC(C3CC3)C(F)(F)F)cnn12 (centres unmarked) [III-112] |  |
|  |  |  |  | Cc1cc(-c2cccc(Cl)c2)nc2c(C(=O)NC(C)C(F)(F)F)cnn12 (centres unmarked) [III-64] | Percent Gcase Activation, 0.1 μM Test Compound (0.1 μM test compound, Table 3A): *** (greater than 20% Gcase activation); Percent Gcase Activation, 1 μM Test Compound (1 μM test compound, Table 3A): +++ (Gcase activation greater than 60%) |
|  |  | *** (greater than 20% Gcase activation) | +++ (Gcase activation greater than 60%) | Cc1cc(-c2cc(C)n3ncc(C(=O)N[C@H](C4CC4)C(F)(F)F)c3n2)sn1 [III-215] |  |
|  |  | *** (greater than 20% Gcase activation) | +++ (Gcase activation greater than 60%) | COc1cc(F)ccc1-c1cc(C)n2ncc(C(=O)N[C@@H](C)C3CC3)c2n1 [III-146] |  |
| *** (greater than 20% Gcase activation) | +++ (Gcase activation greater than 60%) |  |  | Cc1cc(-c2cccnc2C(F)(F)F)nc2c(C(=O)N[C@@H](C3CC3)C(F)(F)F)cnn12 [III-356] |  |
|  |  | *** (greater than 20% Gcase activation) | +++ (Gcase activation greater than 60%) | Cc1cc(-c2ccc3ocnc3c2)nc2c(C(=O)N[C@H](C)C(F)(F)F)cnn12 [III-167] |  |
|  |  |  |  | Cc1cc(C)n2ncc(C(=O)Nc3ccc4c(c3)OCO4)c2n1 [IV-4] | Percent Gease Activation, 0.1 μM Test Compound (0.1 μM test compound, Table 4): * (less than 10% Gcase activation); Percent Gease Activation, 1 μM Test Compound (1 μM test compound, Table 4): ++ (Gcase activation in the range of 30% up to 60%) |
|  |  |  |  | Cc1cc(-c2cccnc2)nc2c(C(=O)NC(C(C)C)C(F)(F)F)cnn12 (centres unmarked) [III-41] | Percent Gcase Activation, 0.1 μM Test Compound (0.1 μM test compound, Table 3A): ** (Gcase activation in the range of 10% up to 20%); Percent Gcase Activation, 1 μM Test Compound (1 μM test compound, Table 3A): +++ (Gcase activation greater than 60%) |
| *** (greater than 20% Gcase activation) | +++ (Gcase activation greater than 60%) |  |  | Cc1cc(N2C[C@H](c3ccccc3)OC2=O)nc2c(C(=O)NC(C3CC3)C(F)(F)F)cnn12 (some centres unmarked) [III-314] |  |
| *** (greater than 20% Gcase activation) | +++ (Gcase activation greater than 60%) |  |  | Cc1cc(-c2cncc(C(F)(F)F)c2)nc2c(C(=O)N[C@H](C)C(F)(F)F)cnn12 [III-286] |  |
|  |  |  |  | Cc1cc(-c2cccnc2)nc2c(C(=O)NC(C)C(F)(F)F)cnn12 (centres unmarked) [III-43] | Percent Gcase Activation, 0.1 μM Test Compound (0.1 μM test compound, Table 3A): * (less than 10% Gcase activation); Percent Gcase Activation, 1 μM Test Compound (1 μM test compound, Table 3A): ++ (Gcase activation in the range of 30% up to 60%) |
| *** (greater than 20% Gcase activation) | +++ (Gcase activation greater than 60%) |  |  | COCCOc1ccc(-c2cc(C)n3ncc(C(=O)NC(C)C(F)(F)F)c3n2)cc1F (centres unmarked) [III-298] |  |
|  |  | *** (greater than 20% Gcase activation) | +++ (Gcase activation greater than 60%) | Cc1cc(-c2cccc3ncoc23)nc2c(C(=O)NC(C3CC3)C(F)(F)F)cnn12 (centres unmarked) [III-104] |  |
|  |  | *** (greater than 20% Gcase activation) | +++ (Gcase activation greater than 60%) | Cc1cc(-c2ncccc2Cl)nc2c(C(=O)NC(C3CC3)C(F)(F)F)cnn12 (centres unmarked) [III-206] |  |
|  |  | *** (greater than 20% Gcase activation) | +++ (Gcase activation greater than 60%) | Cc1cc(-c2cnccc2F)nc2c(C(=O)NC(C3CC3)C(F)(F)F)cnn12 (centres unmarked) [III-124] |  |
|  |  | *** (greater than 20% Gcase activation) | +++ (Gcase activation greater than 60%) | Cc1cc(-c2cncc(F)c2)nc2c(C(=O)NC(C3CC3)C(F)(F)F)cnn12 (centres unmarked) [III-125] |  |
|  |  |  |  | Cc1cc(C)n2ncc(C(=O)NC(C)(C)C3CC4(CCC4)C3)c2n1 [III-13] | Percent Gcase Activation, 0.1 μM Test Compound (0.1 μM test compound, Table 3A): *** (greater than 20% Gcase activation); Percent Gcase Activation, 1 μM Test Compound (1 μM test compound, Table 3A): +++ (Gcase activation greater than 60%) |
|  |  | *** (greater than 20% Gcase activation) | +++ (Gcase activation greater than 60%) | Cc1cc(-c2ccco2)nc2c(C(=O)NC(C3CC3)C(F)(F)F)cnn12 (centres unmarked) [III-186] |  |
| *** (greater than 20% Gcase activation) | +++ (Gcase activation greater than 60%) |  |  | Cc1cc(-c2cccc(-c3ncccn3)c2)nc2c(C(=O)NC(C3CC3)C(F)(F)F)cnn12 (centres unmarked) [III-417] |  |
|  |  | *** (greater than 20% Gcase activation) | +++ (Gcase activation greater than 60%) | Cc1oc(C#N)cc1-c1cc(C)n2ncc(C(=O)N[C@H](C3CC3)C(F)(F)F)c2n1 [III-243] |  |
|  |  | * (less than 10% Gcase activation) | + (less than 30% Gcase activation) | Cc1cc(N2CCCN(C(C)C)C2=O)nc2c(C(=O)NC(C)(C)C(F)(F)F)cnn12 [III-262] |  |
|  |  |  |  | Cc1cc(Cl)nc2c(C(=O)NC(C)(C)C3CC3)cnn12 [III-15] | Percent Gcase Activation, 0.1 μM Test Compound (0.1 μM test compound, Table 3A): *** (greater than 20% Gcase activation); Percent Gcase Activation, 1 μM Test Compound (1 μM test compound, Table 3A): +++ (Gcase activation greater than 60%) |

| SMILES | Percent Gcase Activation, 0.1 μM Test Compound (0.1 μM test compound) | Percent Gcase Activation, 1 μM Test Compound (1 μM test compound) | Percent Gcase Activation, 0.1 μM Test Compound (test compound at 0.1 μM) | Percent Gcase Activation, 1 μM Test Compound (test compound at 1.0 μM) | also measured |
| --- | --- | --- | --- | --- | --- |
| Cc1cc(-c2ccc(F)cc2)nc2c(C(=O)N[C@H](C)C(F)(F)F)cnn12 [III-359] | ** (Gcase activation in the range of 10% up to 20%) | +++ (Gcase activation greater than 60%) |  |  |  |
| Cc1cc(-c2cc(C#N)ccc2F)nc2c(C(=O)N[C@H](C)C(F)(F)F)cnn12 [III-351] | ** (Gcase activation in the range of 10% up to 20%) | +++ (Gcase activation greater than 60%) |  |  |  |
| Cc1cc(N2CCC(C)(C)C2=O)nc2c(C(=O)NC(C3CC3)C(F)(F)F)cnn12 (centres unmarked) [III-328] | ** (Gcase activation in the range of 10% up to 20%) | +++ (Gcase activation greater than 60%) |  |  |  |
| Cc1cc(-c2cccc3c2OCO3)nc2c(C(=O)N[C@@H](C)C3CC3)cnn12 [III-182] |  |  | *** (greater than 20% Gcase activation) | ++ (Gcase activation in the range of 30% up to 60%) |  |
| Cc1cc(-c2cccc3c2ncn3C)nc2c(C(=O)NC(C3CC3)C(F)(F)F)cnn12 (centres unmarked) [III-310] | ** (Gcase activation in the range of 10% up to 20%) | +++ (Gcase activation greater than 60%) |  |  |  |
| Cc1cc(C2CC(C)(C)CCO2)nc2c(C(=O)NC(C3CC3)C(F)(F)F)cnn12 (centres unmarked) [III-323] | ** (Gcase activation in the range of 10% up to 20%) | +++ (Gcase activation greater than 60%) |  |  |  |
| COc1ccc(F)c(-c2cc(C)n3ncc(C(=O)N[C@H](C)C(F)(F)F)c3n2)c1 [III-97] |  |  | ** (Gcase activation in the range of 10% up to 20%) | +++ (Gcase activation greater than 60%) |  |
| Cc1cc(-c2ccc3ncn(C)c3c2)nc2c(C(=O)NC(C3CC3)C(F)(F)F)cnn12 (centres unmarked) [III-304] | ** (Gcase activation in the range of 10% up to 20%) | +++ (Gcase activation greater than 60%) |  |  |  |
